The results in this text go back to patent US20080118458A1, “Agent containing L-Carnitine or L-Carnitine derivatives and at least one other specific substance” (priority 2005, published 2008).

Assay [1] concerns Hepatocyte Growth Factor (HGF). Briefly: Release of HGF into the medium of organotypical cell cultures (ELISA). It is filed as cell-based. The conditions noted are these: 72 h; individual substance 0.01%; untreated = 100. The protocol:
(§1) Hepatocyte Growth Factor (HGF) and Keratinocyte Growth Factor (KGF) are important growth factors which are released from the dermal papillae in order to control the proliferation of the hair keratinocytes. A potentially growth-promoting and hair-strengthening substance can be assumed from an increase in the factors released into the medium. The release of HGF and KGF can be quantified with the help of commercially available ELISA kits. For this, organotypical cell cultures are incubated over 72 h with the substance mixture and the concentration of the growth factors in the medium is determined in the described manner.

Assay [2] relates to Keratinocyte Growth Factor (KGF). As to the kind of experiment: Release of KGF into the medium of organotypical cell cultures (ELISA). The class given is cell-based. The note with it: 72 h; individual substance 0.01%; untreated = 100. The protocol: as §1
(ELISA stands for enzyme-linked immunosorbent assay.)

In the case of `C[N+](C)(C)C[C@H](O)CC(=O)[O-].O=C(O)C(O)C(O)C(=O)O` [Carnitine tartrate, L-carnitine tartrate], the “HGF mean [%] (standard deviation)” value in assay [1] is reported as 100 (42) %. Besides, the “KGF mean [%] (standard deviation)” value in assay [2] is listed as 108 (8) %.
As to `NCCS(=O)(=O)O` [Taurine, 2-aminoethanesulfonic acid], in assay [1], the “HGF mean [%] (standard deviation)” value was 120 (21) %. In addition, the “KGF mean [%] (standard deviation)” value in assay [2] is on record as 71 (7) %.
